Measured values reported in patent US20240424002A1, “METHODS AND COMPOSITIONS FOR TREATING MELANOMA” (THE REGENTS OF THE UNIVERSITY OF CALIFORNIA, priority 2021, published 2024).
“Also recorded” adds a separate entry of the source.

Key:
M249-VSR sublines = test: Viability assay for inducing and protecting from ferroptosis; assay type: cell-based, human; settings: added in combination with RSL3; CellTiter-Glo 24 hr after treatment; FIG. 7B-C / 24B-C
Method: 6000 cells were seeded per well in 96-well plates and treated with ferroptosis inducing agents in combination with vehicle, GSH (Sigma, G4376), Trolox (Acros Organics, 218940010) or DFO (Sigma, D9533) next day. CellTiter-Glo luminescence was assessed 24 hr after treatment. For quantification, all values are normalized to vehicle conditions. Resistance cells were maintained in full dose of MAPK inhibitors throughout the treatments to keep the BRAF amplifications.

[1] = system: SC2 cells (M249-VSR HSR subclone); test: FISH count of HSRs per cell after long-term DNA-PK inhibition; assay type: cell-based, human; settings: 5 μM NU7026 for three months vs DMSO; FIG. 2G
Method: (§1) Cells were blocked at metaphases by adding colcemid (KaryoMax, Thermo Fisher Scientific) at a final concentration of 0.05 μg/ml followed by incubation at 37° C. for 6-8 hours. Cells were then fixed using methanol:acetic acid (3:1). FISH slides were prepared by dropping fixed cells in a humid environment following the manufacture's protocol provided by Cytotest and Empire Genomics. FFPE xenograft tumor FISH slides were prepared by pepsin digestion followed by similar procedures of cell line FISH. Colored FISH images were taken and processed using confocal microscope Leica TCS SP8 X. Karyotype categorizations were based on the guidelines in FIG. 8. The fractions under certain images represent the number of cases for corresponding karyotype divided by total number of cases analyzed. If not otherwise mentioned, scale bars in FISH images represent 10 μm. Centromere probe names are abbreviated as CEN-x. DM numbers were quantified by directly counting the number of features in the FISH images or by using ecDNA quantification tool EcSeg (93). HSR lengths were quantified by dividing the probe area by chromosomal DAPI area in metaphases. The staining areas were calculated using ImageJ v1.53a. Cells fixed by the same procedure were also used for G-banding. G-banded metaphase spreads were photographed using 80i Nikon Microscope and Applied Spectral Imaging (ASI) Karyotyping system. […]

[2] = system: SC4 DM+ cells (M249-VSR single-cell-derived clone); test: FISH assessment of HSRs after long-term DNA-PK inhibition; assay type: cell-based, human; settings: 5 μM NU7026 for 107 days vs DMSO 90 days; FIG. 2E
Method: as §1

[3] = system: M249-P, M249-VSR-DM and M249-VSR-HSR cells; test: Dose response curve of ferroptosis inducing agents, viability by CellTiter-Glo; assay type: cell-based, human; settings: for sensitivity to RSL3 of M249-VSR after drug withdrawal: after VEM+SEL withdrawal, reduced BRAF copy number
Method: (§2) The dose response curves of ferroptosis inducing agents RSL3, Erastin and Ferroptocide were performed by seeding appropriate number of cells on day 0 in 96-well plates, […] luminescent assay. If not otherwise mentioned, resistance cells were maintained in full dose of MAPK inhibitors throughout the dose response experiments to keep the BRAF amplifications. Seeding density for each cell line was determined by using the same assay and the same experimental length with multiple cell number titrations. The dose series were generated by serial dilutions. All drugs used for dose response curves were dissolved in DMSO. DMSO toxicity was performed on the cell lines to determine the appropriate DMSO concentration (0.5%), which was used in all doses. The resulting values from viability assays were normalized to the zero-dose condition after subtracting background (wells with no cells). The curve fittings were performed by using three-parameter model in dre v3.0-1 R package (119).

[4] = system: A375-DTR cells vs parental; test: as above; assay type: cell-based
Method: as §2

[5] = system: Mel888-DTR cells vs parental; test: as above; assay type: cell-based
Method: as §2

[6] = system: M249-P and M249-VSR-DM cells; test: Lipid ROS measurement by flow cytometry; assay type: cell-based, human; settings: FIG. 23A / 25A
[7] = system: M229P/R, M238P/R and SKMEL28P/R cell lines; settings: resistance through upregulation of RTKs, dedifferentiation; cited from earlier work

N[C@@H](CCC(=O)N[C@@H](CS)C(=O)NCC(=O)O)C(=O)O [GSH, reduced glutathione]
rescue of RSL3-induced cell death (percent viable cells) (M249-VSR sublines): cell death can be rescued

O=c1cc(N2CCOCC2)oc2c1ccc1ccccc12 [NU7026]
percentage of cells with multiple HSRs [1]: lower percentage of multiple HSRs
frequency of cells displaying HSR integrations [2]: decreased the frequency of cells displaying HSR integrations

COC(=O)c1ccc([C@@H]2c3[nH]c4ccccc4c3C[C@@H](C(=O)OC)N2C(=O)CCl)cc1 [RSL3]
sensitivity to RSL3 of M249-VSR-DM and -HSR compared to M249-P ([3]; FIG. 7A, 72 hr treatment): substantially more sensitive
sensitivity to RSL3 of M249-VSR after drug withdrawal ([3]; FIG. 7A, 72 hr treatment): lose sensitivity reverting to levels closer to the parental cells
sensitivity to RSL3 of M249-VSR-DM and -HSR compared to M249-P ([3]; FIG. 24A, 24 hr treatment, CellTiter-Glo, resistant cells kept in full dose MAPK inhibitors): substantially more sensitive
sensitivity to RSL3 of M249-VSR after drug withdrawal ([3]; FIG. 24A, 24 hr treatment): lose sensitivity reverting to levels closer to the parental cells
RSL3 sensitivity of A375-DTR compared to parental ([4]; FIG. 7A, 72 hr treatment): increased RSL3 sensitivity
RSL3 sensitivity of A375-DTR compared to parental ([4]; FIG. 24A, 24 hr treatment): increased RSL3 sensitivity
RSL3 sensitivity of Mel888-DTR compared to parental ([5]; FIG. 7A, 72 hr treatment): increased RSL3 sensitivity
RSL3 sensitivity of Mel888-DTR compared to parental ([5]; FIG. 24A, 24 hr treatment): increased RSL3 sensitivity
lipid ROS levels upon RSL3 treatment ([6]; 1 μM RSL3, 24 hr, C11-BODIPY dye): increased lipid ROS levels; also recorded: increase in lipid ROS levels
sensitivity to RSL3 of resistant vs parental lines [7]: increased sensitivity

Cc1c(C)c2c(c(C)c1O)CCC(C)(C(=O)O)O2 (stereo not shown) [Trolox]
rescue of RSL3-induced cell death (percent viable cells) (M249-VSR sublines): cell death can be rescued
protection against RSL3-induced lipid ROS ([6]; 150 μM Trolox with 1 μM RSL3, 24 hr): protected; also recorded: protects against RSL3-induced lipid ROS

C[C@@H]1CC[C@@]23C[C@H](O)C(=O)[C@@]2(O)[C@]1(C)[C@H](OC(=O)CCl)C[C@@H](C1=CCn2c(=O)n(-c4ccccc4)c(=O)n2C1)[C@@H]3C [ferroptocide]
sensitivity of BRAF-amplified M249 dual MAPKi-resistant cells compared to parental ([3]; FIG. 23B, M249-VSR-DM and -HSR, 72 hr treatment, CellTiter-Glo): sensitive
